Measured values as given in PubChem BioAssay (NCI).
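Grown in 96-well plates, cells were treated for 48 hours with each compound at five concentrations. Insufficient inhibition: endpoint recorded as highest concentration tested. Definition used: TGI = concentration required for complete inhibition of growth.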

Columns and labels:
Assay in all cases: NCI-60 cell line screen, 48 h
[1] = tested on: CCRF-CEM leukemia
[2] = tested on: COLO 205 colon
[3] = tested on: DU-145 prostate
[4] = tested on: EKVX NSCLC
[5] = tested on: HCC-2998 colon
[6] = tested on: HCT-15 colon
[7] = tested on: HOP-92 NSCLC
[8] = tested on: M14 melanoma
[9] = tested on: MDA-MB-435
[10] = tested on: SF-268 CNS
[11] = tested on: SF-295 CNS
[12] = tested on: SK-MEL-2 melanoma
[13] = tested on: SK-MEL-28 melanoma
[14] = tested on: SK-MEL-5 melanoma
[15] = tested on: SNB-75 CNS

Structure (SMILES) | TGI [1] [µM] | TGI [2] [µM] | TGI [3] [µM] | TGI [4] [µM] | TGI [5] [µM] | TGI [6] [µM] | TGI [7] [µM] | TGI [8] [µM] | TGI [9] [µM] | TGI [10] [µM] | TGI [11] [µM] | TGI [12] [µM] | TGI [13] [µM] | TGI [14] [µM] | TGI [15] [µM]
C=CCn1c(=O)c(C)cn(/C(=C/C(=O)OCC)C(=O)OCC)c1=O | 5.42 | 15.2 | > 74.3 | 28.7 | 33.5 | 13.7 | 17.2 | 28.1 | 28.2 | 44.3 | > 100 | 53.6 | 32.3 | 36.3 | 25.6
Fc1ccc(C(OCCN2CCC3CCC(C2)N3Cc2cc3ccccc3[nH]2)c2ccc(F)cc2)cc1 (centres undefined) | 4.69 | 2.14 | 3.59 | 3.73 | 3.06 | 2.38 | 3.62 | 2.94 | 3.55 | 4.12 | 3.78 | 3.16 | 3.04 | 3.11 | 3.97
N#Cc1c(NC(=S)NCc2ccccc2)sc2c1CCN(N1CCc3c(sc(NC(=S)NCc4ccccc4)c3C#N)C1)C2 | > 100 | > 100 | > 100 | > 100 | > 100 | > 100 | > 100 | > 100 | > 100 | > 100 | > 100 | > 100 | > 100 | > 100 | > 100
CC(C)[Si](OC1=CCCCCC12C(=O)N(C)c1ccccc12)(C(C)C)C(C)C (centres undefined) | 36.5 | 35.8 | 29.9 | 38.6 | 38.3 | 33.8 | 30.8 | 49.2 | 67.3 | 48.1 | 28.6 | 37.6 | 60.4 | 33.8 | 40.4
O=C1c2cc(CCl)sc2C(=O)c2ccsc21 | 1.22 | 2.68 | 0.332 | 2.74 | 3.04 | 1.48 | 1.47 | 0.0462 | 0.0339 | 0.676 | 0.245 | 0.42 | 0.149 | 0.0821 | 0.38
CC(=O)OC[C@@]12C[C@H]3C(=O)C(C)(C)C[C@H]3[C@]1(C)[C@@H](OC(C)=O)[C@]1(O)[C@H]([C@@H](OC(=O)c3ccccc3)[C@@H](C)[C@H]1OC(C)=O)[C@H]2OC(C)=O | > 20 | > 20 | > 20 | > 20 | > 20 | > 20 | > 20 | > 20 | > 20 | > 20 | > 20 | > 20 |  | > 20 | > 20
CN1C[C@@H]2CCCN2P1Oc1cccc2cccnc12 (some centres undefined) | 19.3 | > 100 | > 100 | 90.6 | > 100 | > 100 | > 100 | > 100 | > 100 | 69.7 | > 100 | > 100 | > 100 | > 100 | > 100
